Measured values: US10751308B2, “Composition for preventing or reducing transepidermal water loss” (NESTEC S.A., priority 2016, dated 2020)

System: Balb/c female mice
Assay: Transepidermal water loss in pups of mothers receiving SCFA in drinking water during pregnancy (TEWLmeter method)
Type: in vivo
Settings: 200 mM in drinking water of pregnant mothers from day 1 of pregnancy; TEWL at day 3 after birth; vs regular drinking water; FIG. 1
Description: • Breeding pairs were set up with 1 Balb/c male and 2 Balb/c female mice. • From day 1 of pregnancy, female mice received 200 mM sodium acetate or sodium propionate ad libitum in drinking water. These doses correspond to 0.05-0.1 and 0.05-0.08 g/mouse/day, respectively. Control female mice received regular drinking water. • Cages were monitored from day 18-24 for litters. Regular drinking water was recommenced in the mothers as soon as pups were born. 6-7 pups per group were included in the experiment. • Transepidermal water loss was measured at day 3 after birth (baseline TEWL) by the TEWLmeter method and given in g·h^−1·m^−2.

| Structure (SMILES) | transepidermal water loss in offspring |
| --- | --- |
| CC(=O)[O-].[Na+] [acetate, sodium acetate] | significantly decreased |
| CCC(=O)[O-].[Na+] [propionate, sodium propionate] | significantly decreased |
